From patent publication US20250163119A1, “COMPOUNDS FOR THE TREATMENT OF DIABETES OR OBESITY” (Eli Lilly and Company, priority 2023, published 2025)
Several values for one entry are separate records, joined by “and”; a condition that tells them apart may be missing. Equal values may be shown once. *1 amine or outer side, *2 acyl side, *3 side chain or, on linkers, in order; H or OH if unused. Where a SMILES comes first, the peptide text is derived from it. Side-chain parts run from the residue outwards. [ ]: non-standard residue; d: D form. The star is where a group is joined. C20 diacid = O=C(O)CCCCCCCCCCCCCCCCCCC(=O)*; γGlu = O=C(O)[C@H](CCC(=O)[*:2])N[*:1]; NMeI = CC[C@H](C)[C@H](NC)C(=O)O; αMeL = CC(C)C[C@](C)(N)C(=O)O; AEEA = NCCOCCOCC(=O)O

Assays:
[1] = test system: MHC-II presented peptides on human dendritic cells; assay: MAPPS assay (MHC-Associated Peptide Proteomics); assay type: cell-based; settings: for peptides displayed on MHC-II complexes: human dendritic cells from normal donors
In short: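 Peptides eluted from anti-MHC-II immunoprecipitates of day-6 DC lysates were sequenced by MS, mapped onto the parent test molecule, and scored as percentage of donors presenting each region. DCs derived from donor CD14+ cells (IL-4, GM-CSF) received test molecules on day 4, then LPS maturation on day 5.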

[2] = Pharmacokinetics in Sprague Dawley rats, single subcutaneous or intravenous dose (incl. 10, 30, 100 nmol/kg dose response); assay type: in vivo; settings: for Tmax: read-out: Tmax
[3] = Pharmacokinetics in Yucatan mini-pigs, single subcutaneous or intravenous dose; assay type: in vivo
Protocol: Plasma concentrations of compounds were determined by LC/MS methods. For each assay, the compound and an internal standard (IS), were extracted from 100% mouse, rat, pig, or monkey plasma (70 μL) using Isopropanol-Methanol. Two distinct layers were formed upon centrifugation with the compound and the IS located in the supernatant layer. An aliquot of the supernatant (150 μL) was transferred to a Waters Sirocco Protein Precipitation Plate. The supernatant was eluted using a positive pressure manifold. The supernatant was mixed with 100-2 Water-Formic acid (400 μL) in a pretreated Sep-Pak tC18 SPE plate and eluted to waste. The peptide and IS were eluted with Acetonitrile-Formic acid (100 μL) in 2 steps (50 μL each step). The elution (40 μL) from SPE plate was mixed with diluent solution (1.875 μL 5× invitrosol and 3.125 μL 1% formic acid in water, 80 μL). A final sample (10 μl) was loaded onto a Xselect CSH C18 IS column (3.5 μm 2.1×20 mm). The column effluent was directed into a Thermo Fisher Scientific Orbitrap (Exploris 240) mass spectrometer for detection and quantitation.
Male Yucatan mini-pigs were administered a single subcutaneous dose or intravenous dose (19 or 99 nmol/kg) of compound in 40 mM Tris-HCl 5% D-mannitol (pH 8) at a volume of 0.01 or 0.05 mL/kg. Blood was collected from each animal at 0.083 (IV only), 0.5, 3, 6, 24, 48, 72, 96, 168, 240, 336, 408, and 504 hours postdose for pharmacokinetic characterization.

CD4+ T cells = assay: T cell proliferation assay; assay type: cell-based, human
Protocol: This assay assessed the ability of tested antibodies or tested MAPPS peptides to activate CD4+ T cells by inducing cellular proliferation. CD8+ T cell depleted PBMC's were prepared and labeled with CFSE. Each sample was tested with media control, keyhole limpet haemocyanin (KLH; positive clinical benchmark control), tested antibodies, or tested MAPPS peptides. Cultures were incubated for 7 days. On day 7, samples were analyzed by flow cytometry.

[4] = donors displaying MHC-II peptides / donors tested
[5] = percentage of donors displaying MHC-II peptides
[6] = male, Sprague Dawley, rat, plasma, iv, 197 nmol/kg, single intravenous dose 197 nmol/kg, individual animal
[7] = male, Sprague Dawley, rat, plasma, iv, 197 nmol/kg, single intravenous dose 197 nmol/kg, mean
[8] = male, Sprague Dawley, rat, plasma, sc, 197 nmol/kg, single subcutaneous dose 197 nmol/kg, individual animal
[9] = male, Sprague Dawley, rat, plasma, sc, 197 nmol/kg, single subcutaneous dose 197 nmol/kg, mean
[10] = single intravenous dose 197 nmol/kg, male Sprague Dawley rats, individual animal
[11] = single subcutaneous dose 197 nmol/kg, male Sprague Dawley rats, individual animal
[12] = male Yucatan pigs, single subcutaneous dose 99 nmol/kg, individual animal
[13] = male, Yucatan mini-pig, minipig, plasma, iv, 99 nmol/kg, single intravenous dose 99 nmol/kg, mean
[14] = single intravenous dose 99 nmol/kg, male Yucatan pigs, individual animal

CC[C@H](C)[C@H](NC(C)=O)C(=O)N[C@H](C(=O)N[C@H](C(=O)N[C@@H](CO)C(=O)N[C@@](C)(CC(C)C)C(=O)N[C@@H](CC(=O)O)C(=O)N[C@@H](C(=O)N1CCC[C@H]1C(=O)N[C@H](C(=O)NCC(=O)N[C@@](C)(CC(C)C)C(=O)N[C@@H](CC(C)C)C(=O)N[C@@H](CCC(N)=O)C(=O)N[C@H](C(=O)N[C@@H](CCCCN)C(=O)N[C@@H](CC(C)C)C(=O)N[C@@H](CCC(=O)O)C(=O)N[C@@H](CCC(N)=O)C(=O)N[C@@H](CCC(=O)O)C(=O)N[C@@H](CCCNC(=N)N)C(=O)N[C@@H](C)C(=O)N[C@@H](CCC(=O)O)C(=O)N[C@@H](CCCCN)C(=O)N[C@@H](C)C(=O)N[C@@H](CCCNC(=N)N)C(=O)N[C@@H](CCC(N)=O)C(=O)N[C@@H](CCC(N)=O)C(=O)N[C@@H](C)C(=O)N[C@@H](CCCCNC(=O)COCCOCCNC(=O)COCCOCCNC(=O)CC[C@H](NC(=O)CCCCCCCCCCCCCCCCCCC(=O)O)C(=O)O)C(=O)N[C@@H](CCC(=O)O)C(=O)N[C@@H](CC(N)=O)C(=O)N[C@H](C(=O)N[C@@H](CCC(=O)O)C(=O)N[C@H](C(=O)N[C@@H](CC(C)C)C(=O)N[C@@H](C)C(=O)N[C@@H](CCC(N)=O)C(=O)N[C@H](C(N)=O)C(C)C)[C@@H](C)CC)[C@@H](C)O)[C@@H](C)CC)[C@@H](C)O)C(C)C)[C@@H](C)O)C(C)C [SEQ ID NO: 29, Ac-IVTS αMeL D (D-Val) PTG αMeL LQIKLEQERAEKARQ QAK((2-[2-(2-Amino-ethoxy)-ethoxy]-acetyl)2-γE-CO-(CH2)18-CO2H)ENTEILAQV-NH2] (Ac-IVTS[αMeL]D[dV]PTG[αMeL]LQIKLEQERAEKARQQAK([AEEA-AEEA-γGlu-C20 diacid])ENTEILAQV-NH2)
MAPPS Assay >10 donors with diverse MHC [1, 4]: 8/30
peptides displayed on MHC-II complexes [1]: at least one peptide cluster on MHC-II complexes in a subset of donors
immunogenicity compared with SEQ ID NO:54 ([1]; in the MAPPs assay and/or the T cell proliferation assay): substantial improvements in immunogenicity over a compound comprising SEQ ID NO:54
MAPPS Assay >10 donors with diverse MHC [1, 5]: 27%
clearance [2, 6]: 1.66 mL/h/kg
half-life [2, 6]: 41.7 h
clearance [2, 7]: 1.47 mL/h/kg
half-life [2, 7]: 45.5 h
half-life [2, 8]: 52.8 h
CL/F ([2]; male, Sprague Dawley, rat, plasma, sc, 197 nmol/kg, single subcutaneous dose 197 nmol/kg, individual animal, read-out: CL/F (converted)): 2.35 mL/h/kg
Tmax [2, 8]: 24 h
half-life [2, 9]: 47 h
CL/F ([2]; male, Sprague Dawley, rat, plasma, sc, 197 nmol/kg, single subcutaneous dose 197 nmol/kg, mean, read-out: CL/F (converted)): 2.48 mL/h/kg
Tmax [2, 9]: 24 h
AUC0-inf ([2]; rat, plasma, sc, single subcutaneous dose 197 nmol/kg, male Sprague Dawley rats, mean, read-out: AUC0-inf): 89.9 µM·h
Cmax ([2]; rat, plasma, sc, single subcutaneous dose 197 nmol/kg, male Sprague Dawley rats, mean, read-out: Cmax): 815 nM
AUC0-inf ([2]; rat, plasma, single intravenous dose 197 nmol/kg, male Sprague Dawley rats, mean, read-out: AUC0-inf): 136 µM·h
C0 ([2]; rat, plasma, single intravenous dose 197 nmol/kg, male Sprague Dawley rats, mean, read-out: C0): 4270 nM
AUC0-inf [2, 10]: 119 µM·h and 152 µM·h and 136 µM·h
C0 [2, 10]: 6910 nM and 4840 nM and 1050 nM
CL [2, 10]: 1.30 mL/h/kg and 1.45 mL/h/kg
T1/2 [2, 10]: 45.2 h and 49.6 h
AUC0-inf [2, 11]: 96.8 µM·h and 82.9 µM·h
CL/F [2, 11]: 2.61 mL/h/kg
Cmax [2, 11]: 881 nM and 749 nM
T1/2 [2, 11]: 41.1 h
AUC0-inf ([3]; Yucatan mini-pig, minipig, plasma, sc, male Yucatan pigs, single subcutaneous dose 99 nmol/kg, Mean, read-out: AUC0-inf): 76.4 µM·h
Cmax ([3]; Yucatan mini-pig, minipig, plasma, sc, male Yucatan pigs, single subcutaneous dose 99 nmol/kg, Mean, read-out: Cmax): 259 nM
AUC0-inf [3, 12]: 128 µM·h and 67.5 µM·h and 33.8 µM·h
CL/F [3, 12]: 1.03 mL/h/kg and 2.06 mL/h/kg and 3.56 mL/h/kg
Cmax [3, 12]: 497 nM and 201 nM and 79.6 nM
T1/2 [3, 12]: 292 h and 185 h
Tmax [3, 12]: 168 h
clearance ([3]; male, Yucatan mini-pig, minipig, plasma, iv, 99 nmol/kg, single intravenous dose 99 nmol/kg, individual animal): 0.321 mL/h/kg
clearance [3, 13]: 0.356 mL/h/kg
half-life [3, 13]: 166 h
half-life ([3]; male, Yucatan mini-pig, minipig, plasma, sc, 99 nmol/kg, single subcutaneous dose 99 nmol/kg, Mean): 214 h
CL/F ([3]; male, Yucatan mini-pig, minipig, plasma, sc, 99 nmol/kg, single subcutaneous dose 99 nmol/kg, Mean, read-out: CL/F (converted)): 2.22 mL/h/kg
Tmax ([3]; male, Yucatan mini-pig, minipig, plasma, sc, 99 nmol/kg, single subcutaneous dose 99 nmol/kg, Mean, read-out: Tmax): 72 h
half-life ([3]; male, Yucatan mini-pig, minipig, plasma, sc, 99 nmol/kg, single subcutaneous dose 99 nmol/kg, individual animal): 166 h
AUC0-inf ([3]; minipig, plasma, single intravenous dose 99 nmol/kg, male Yucatan pigs, mean, read-out: AUC0-inf): 285 µM·h
C0 ([3]; minipig, plasma, single intravenous dose 99 nmol/kg, male Yucatan pigs, mean, read-out: C0): 2490 nM
AUC0-inf [3, 14]: 307 µM·h and 220 µM·h and 329 µM·h
C0 [3, 14]: 2530 nM and 2560 nM and 2380 nM
CL [3, 14]: 0.448 mL/h/kg and 0.299 mL/h/kg
T1/2 [3, 14]: 109 h and 126 h and 263 h

CC[C@H](C)[C@H](NC)C(=O)N[C@H](C(=O)N[C@@H](CC(C)C)C(=O)N[C@@H](CO)C(=O)N[C@@H](CC(C)C)C(=O)N[C@@H](CC(=O)O)C(=O)N[C@H](C(=O)N1CCC[C@H]1C(=O)N[C@H](C(=O)NCC(=O)N[C@@H](CC(C)C)C(=O)N[C@@H](CC(C)C)C(=O)N[C@@H](CCC(N)=O)C(=O)N[C@H](C(=O)N[C@@H](CC(C)C)C(=O)N[C@@H](CC(C)C)C(=O)N[C@@H](CCC(=O)O)C(=O)N[C@@H](CCC(N)=O)C(=O)N[C@@H](CCC(=O)O)C(=O)N[C@@H](CCCCN)C(=O)N[C@@H](CCC(N)=O)C(=O)N[C@@H](CCC(=O)O)C(=O)N[C@@H](CCCCN)C(=O)N[C@@H](CCC(=O)O)C(=O)N[C@@H](CCCCN)C(=O)N[C@@H](CCC(N)=O)C(=O)N[C@@H](CCC(N)=O)C(=O)N[C@@H](C)C(=O)N[C@@H](CCCCNC(=O)COCCOCCNC(=O)COCCOCCNC(=O)CC[C@H](NC(=O)CC[C@H](NC(=O)CCCCCCCCCCCCCCCCCCC(=O)O)C(=O)O)C(=O)O)C(=O)N[C@H](C(=O)N[C@@H](CC(N)=O)C(=O)N[C@@H](C)C(=O)N[C@@H](CCC(N)=O)C(=O)N[C@H](C(=O)N[C@@H](CC(C)C)C(=O)N[C@@H](C)C(=O)N[C@@H](CCC(N)=O)C(=O)N[C@H](C(N)=O)C(C)C)[C@@H](C)CC)[C@@H](C)O)[C@@H](C)CC)[C@@H](C)CC)C(C)C)C(C)C [SEQ ID NO: 54] (H-[NMeI]VLSLDVPIGLLQILLEQEKQEKEKQQAK([AEEA-AEEA-γGlu-γGlu-C20 diacid])TNAQILAQV-NH2)
CD4+ T cell proliferation response in donors (CD4+ T cells; CD8+ T cell depleted PBMCs, 7 days, ten donors): elicited a response in four out of ten donors
T Cell Proliferation Assay: protein 7-10 donors with diverse MHC (CD4+ T cells; responding donors / donors tested): 4/10
MAPPS Assay >10 donors with diverse MHC [1, 4]: 7/10
peptides displayed on MHC-II complexes [1]: at least one peptide cluster on MHC-II complexes in a subset of donors
MAPPS Assay >10 donors with diverse MHC [1, 5]: 70%
